Measured values published in patent US10125134B2 (Mirati Therapeutics, Inc., priority 2016, dated 2018).
Read-outs that look alike come from different tables or passages of the source.

What was measured:
[1] = test system: NCI-H358 cells (express KRas G12C), Phospho-ERK; experiment: Cellular inhibition of KRas G12C: Phospho-ERK in NCI-H358 cells; assay type: cell-based
Description: The cellular inhibition of KRAs G12C by exemplary compounds of the present invention was determined by measuring the amount of a downstream marker of KRas activity, phosphorylated ERK (“Phospho-ERK”).
Cells were plated in poly-D-Lysine coated 96-well plates at a concentration of 50,000 cells/well and allowed to attach for 8-12 hours. Diluted compounds were then added at a final concentration of 0.5% DMSO. After 3 hours, the medium was removed, 150 μL of 4% formaldehyde was added and the plates were incubated for 20 minutes. The plates were washed with PBS, and permeabilized using 150 μL of ice cold 100% methanol for 10 minutes. Non-specific antibody binding to the plates was blocked using 100 μL Licor Blocking Buffer (Li-Cor Biotechnology, Lincoln Nebr.) for 1 hour at room temperature. Positive control samples and samples lacking cells were parallel processed with test samples as standards.
The amount Phospho-ERK was determined using an antibody specific for the phosphorylated form of ERK and compared to the amount of GAPDH. […] The plates were incubated for 2 hours at room temperature. The plates were washed with PBS+0.05% Tween 20.
Secondary antibodies used to visualize primary antibodies were added as follows: Anti-rabbit-680 diluted 1:1000 and Anti-mouse-800 diluted 1:1000 in Licor Block+0.05% Tween 20 and incubated for 1 hour at room temperature. The plates were washed with PBS+0.05% Tween 20. A 100 μL aliquot of PBS was added to each well and the plates were read on a LICOR AERIUS plate reader.
The pERK(Thr202/Tyr204) signal was normalized with the GAPDH signal and percent of DMSO control values were calculated. IC50 values were generated using a 4 parameter fit of the dose response curve. Key: “A”≥0.0001−≤1 μM; and “B”>1 μM.

[2] = target: KRas G12C (Homo sapiens, UniProt P01116, C118S/C51S/C80L/G12C); experiment: KRas G12C Modification Assay (LCMS detection of covalent adduct); assay type: binding
Description: A 10 μL aliquot of each protein solution was then transferred to a 384 well microtiter plate. Initial compound stocks were generated at fifty times their desired final assay concentration in DMSO.
Exemplary compounds of Formula (I) were diluted 25-fold into K-Ras Assay Buffer to a final of two times their final concentration. A 10 μL aliquot of each diluted compound solution was then added to each of the protein solutions in the microtiter plate to initiate reaction. […] At each time point, the reactions were quenched with 20 μL of a 25 mM acetic acid solution. […] Once all reactions were quenched, the plates were heat sealed and the samples were injected into a LC/MS system for data acquisition.
Samples were injected in their liquid phase onto a C-3 reverse phase column to remove assay buffer and prepare the samples for mass spectrometer. The proteins were eluted from the column using an acetonitrile gradient and fed directly into the mass analyzer. Initial raw data analysis took place in Agilent MassHunter software immediately post data acquisition.
Raw data analysis of the intact protein was exclusively a deconvolution of the multiple charge states of each protein in solution using a maximum entropy deconvolution provided in Mass Hunter. To minimize complexity, only the data over limited mass ranges were considered for analysis, with a minimum of one Dalton mass step intervals. The heights of all masses identified during raw data analysis were exported to be further analyzed in Spotfire® data analysis software.
Final data analysis was a multistep process in the Spotfire® data analysis software package. Briefly, each protein mass was calculated as a percent of the total signal of that sample, that percentage was then normalized to the percentage of signal of the protein in the absence of reactive compounds. Those normalized signals were reported as normalized percent of control (POC). […] Key: “A”≤25% POC; “B”>25% POC−≤50% POC; “C”>50% POC and ND=not determined.

[3] = Homo sapiens, NCI-H358, 3 h, pERK(Thr202/Tyr204) normalized with GAPDH, NCI-H358 cells, 3 hours, read-out: IC50
[4] = normalized percent of control, tested at 5 μM concentration for 3 hours
[5] = Homo sapiens, pERK(Thr202/Tyr204) normalized with GAPDH, NCI-H358 cells, 3 hours, read-out: IC50

Compound	IC50 [1, 3]	POC [2, 4]	also measured
C=CC(=O)N1CCN(c2nc(OC[C@@H]3CCCN3C)nc3c2CCN(c2cccc(OC)c2C(F)(F)F)C3)C[C@@H]1CC#N [Example 330, 2-[(2S)-4-[7-[3-methoxy-2-(trifluoromethyl)phenyl]-2-[[(2S)-1-methylpyrrolidin-2-yl]methoxy]-6,8-dihydro-5H-pyrido[3,4-d]pyrimidin-4-yl]-1-prop-2-enoyl-piperazin-2-yl]acetonitrile]	0.1 to 1000 nM	C (“C”>50% POC)	
C=CC(=O)N1CCN(c2nc(OC[C@H]3CN(C)CCO3)nc3c2CCN(c2cccc4ccccc24)C3)CC1CC#N (stereo partly drawn) [Example 270, 2-(1-acryloyl-4-(2-(((R)-4-methylmorpholin-2-yl)methoxy)-7-(naphthalen 1-yl)-5,6,7,8-tetrahydropyrido[3,4-d]pyrimidin-4-yl)piperazin-2-yl)acetonitrile]	0.1 to 1000 nM	C (“C”>50% POC)	
C=CC(=O)N1CCN(c2nc(OC[C@@H]3CCCN3C)nc3c2CCN(c2cccc4c(F)cccc24)C3)CC1CC#N (stereo partly drawn) [Example 287, 2-[4-[7-(5-fluoro-1-naphthyl)-2-[[(2S)-1-methylpyrrolidin-2-yl]methoxy]-6,8-dihydro-5H-pyrido[3,4-d]pyrimidin-4-yl]-1-prop-2-enoyl-piperazin-2-yl]acetonitrile]		C (“C”>50% POC)	IC50 ([1]; pERK(Thr202/Tyr204) normalized with GAPDH, NCI-H358 cells, 3 hours, read-out: IC50): 0.1 to 1000 nM
C=CC(=O)N1CCN(c2nc(OC[C@@H]3CCCN3C)nc3c2CCN(c2cccc4cccc(C)c24)C3)CC1CC#N (stereo partly drawn) [Example 309, 2-(1-acryloyl-4-(7-(8-methylnaphthalen-1-yl)-2-(((S)-1-methylpyrrolidin-2-yl)methoxy)-5,6,7,8-tetrahydropyrido[3,4-d]pyrimidin-4-yl)piperazin-2-yl)acetonitrile]	0.1 to 1000 nM	C (“C”>50% POC)	
C=CC(=O)N1CCN(c2nc(OC[C@H]3CCCCN3C)nc3c2CCN(c2cccc4ccccc24)C3)C[C@@H]1CC#N [Example 431, 2-((S)-1-acryloyl-4-(2-(((R)-1-methylpiperidin-2-yl)methoxy)-7-(naphthalen-1-yl)-5,6,7,8-tetrahydropyrido[3,4-d]pyrimidin-4-yl)piperazin-2-yl)acetonitrile]	0.1 to 1000 nM	C (“C”>50% POC)	
C=CC(=O)N1CCN(c2nc(OC[C@H]3C[C@@H](O)CN3C)nc3c2CCN(c2cccc(F)c2C(F)(F)F)C3)CC1CC#N (stereo partly drawn) [Example 415, 2-(1-acryloyl-4-(7-(3-fluoro-2-(trifluoromethyl)phenyl)-2-(((2R,4R)-4-hydroxy-1-methylpyrrolidin-2-yl)methoxy)-5,6,7,8-tetrahydropyrido[3,4-d]pyrimidin-4-yl)piperazin-2-yl)acetonitrile]	0.1 to 1000 nM	C (“C”>50% POC)	
C=CC(=O)N1CCN(c2nc(OC[C@@H]3CCCN3C)nc3c2CCN(c2ccccc2C(C)C)C3)CC1 [Example 158, 1-[4-[7-(2-isopropylphenyl)-2-[[(2S)-1-methylpyrrolidin-2-yl]methoxy]-6,8-dihydro-5H-pyrido[3,4-d]pyrimidin-4-yl]piperazin-1-yl]prop-2-en-1-one]		C (“C”>50% POC)	IC50 [1, 5]: > 1000 nM
C=CC(=O)N1CCN(c2nc(OC[C@@H]3C[C@@H](OC)CN3CC)nc3c2CCN(c2cccc(Cl)c2C(F)(F)F)C3)C[C@@H]1CC#N [Example 335, 2-[(2S)-4-[7-[3-chloro-2-(trifluoromethyl)phenyl]-2-[[(2S,4R)-1-ethyl-4-methoxy-pyrrolidin-2-yl]methoxy]-6,8-dihydro-5H-pyrido[3,4-d]pyrimidin-4-yl]-1-prop-2-enoyl-piperazin-2-yl]acetonitrile]	0.1 to 1000 nM	C (“C”>50% POC)	
C=CC(=O)N1CCN(c2nc(OC[C@@H]3CCCN3C)nc3c2CCN(c2cccc4ccccc24)C3)C(C)(C)C1 [Example 354, 1-[3,3-dimethyl-4-[2-[[(2S)-1-methylpyrrolidin-2-yl]methoxy]-7-(1-naphthyl)-6,8-dihydro-5H-pyrido[3,4-d]pyrimidin-4-yl]piperazin-1-yl]prop-2-en-1-one]	> 1000 nM	C (“C”>50% POC)	
C=CC(=O)N1CCN(c2nc(OCCCN3CCOCC3)nc3c2CCN(c2c(F)c(O)cc4ccccc24)C3)CC1 [Example 165, 1-[4-[7-(2-fluoro-3-hydroxy-1-naphthyl)-2-(3-morpholinopropoxy)-6,8-dihydro-5H-pyrido[3,4-d]pyrimidin-4-yl]piperazin-1-yl]prop-2-en-1-one]			IC50 ([1]; Homo sapiens, NCI-H358, 3 h): > 1000 nM; POC ([2]; 5 µM): C (key: “A”≤25% POC; “B”>25% POC−≤50% POC; “C”>50% POC)
CC#CC(=O)N1CCN(c2nc(OC[C@@H]3CCCN3C)nc3c2CCN(c2cccc4cccc(Cl)c24)C3)C[C@@H]1CC#N [Example 391, 2-((S)-1-(but-2-ynoyl)-4-(7-(8-chloronaphthalen-1-yl)-2-(((S)-1-methylpyrrolidin-2-yl)methoxy)-5,6,7,8-tetrahydropyrido[3,4-d]pyrimidin-4-yl)piperazin-2-yl)acetonitrile]	0.1 to 1000 nM	C (“C”>50% POC)	
C=CC(=O)N1CCN(c2nc(OCCN3CCCC(F)(F)C3)nc3c2CCN(c2cccc4cccc(Cl)c24)C3)C[C@@H]1CC#N [Example 453, 2-[(2S)-4-[7-(8-chloro-1-naphthyl)-2-[2-(3,3-difluoro-1-piperidyl)ethoxy]-6,8-dihydro-5H-pyrido[3,4-d]pyrimidin-4-yl]-1-prop-2-enoyl-piperazin-2-yl]acetonitrile]	0.1 to 1000 nM	C (“C”>50% POC)	
C=CC(=O)N1CCN(c2nc(OC[C@@H]3CCCN3C(C)C)nc3c2CCN(c2cccc4ccccc24)C3)CC1CC#N (stereo partly drawn) [Example 252, 2-[4-[2-[[(2S)-1-isopropylpyrrolidin-2-yl]methoxy]-7-(1-naphthyl)-6,8-dihydro-5H-pyrido[3,4-d]pyrimidin-4-yl]-1-prop-2-enoyl-piperazin-2-yl]acetonitrile]		C (“C”>50% POC)	IC50 [1, 5]: 0.1 to 1000 nM
C=CC(=O)N1CCN(c2nc(OC[C@@H]3CCCN3C)nc3c2CCN(c2cccc(Cl)c2C(F)(F)F)C3)CC1CC#N (stereo partly drawn) [Example 277, 2-(1-acryloyl-4-(7-(3-chloro-2-(trifluoromethyl)phenyl)-2-(((S)-1-methylpyrrolidin-2-yl)methoxy)-5,6,7,8-tetrahydropyrido[3,4-d]pyrimidin-4-yl)piperazin-2-yl)acetonitrile]	0.1 to 1000 nM	C (“C”>50% POC)	
C=CC(=O)N1CCN(c2nc(OC[C@@H]3CCCN3C)nc3c2CCN(c2cccnc2C(F)(F)F)C3)CC1CC#N (stereo partly drawn) [Example 226, 2-(1-acryloyl-4-(2-(((S)-1-methylpyrrolidin-2-yl)methoxy)-7-(2-(trifluoromethyl)pyridin-3-yl)-5,6,7,8-tetrahydropyrido[3,4-d]pyrimidin-4-yl)piperazin-2-yl)acetonitrile]	0.1 to 1000 nM	C (“C”>50% POC)	
C=CC(=O)N1CCN(c2nc(OC[C@@H]3CCCN3C)nc3c2CCN(c2ccccc2C(F)(F)F)C3)C[C@@H]1CC#N [Example 237, 2-((S)-1-acryloyl-4-(2-(((S)-1-methylpyrrolidin-2-yl)methoxy)-7-(2-(trifluoromethyl)phenyl)-5,6,7,8-tetrahydropyrido[3,4-d]pyrimidin-4-yl)piperazin-2-yl)acetonitrile 2,2,2-trifluoroacetate]	0.1 to 1000 nM	C (“C”>50% POC)	
